Assay results as given in ChEMBL document CHEMBL1146527, “The guineamides, novel cyclic depsipeptides from a Papua New Guinea collection of the marine cyanobacterium Lyngbya majuscula” (J Nat Prod, 2003).
The source made the active and inactive calls. The calls are words filed in the database; no cut-off is given here.

Assays:
N2a = assay: Cytotoxicity against mouse Neuro2a cells at 10 ug/mL; type: functional, cell-based
[1] = Cytotoxicity against mouse Neuro2a cells; type: functional, cell-based; conditions: N2a

Structure (SMILES)	Activity (N2a)	IC50 [1]
CC[C@H]1NC(=O)c2csc(n2)[C@H](C)NC(=O)[C@H](Cc2ccccc2)N(C)C(=O)[C@H](C(C)C)N(C)C(=O)[C@H](C)OC(=O)[C@H]1C	inactive	–
CC1NC(=O)c2csc(n2)[C@H](C)NC(=O)[C@H](Cc2ccccc2)N(C)C(=O)[C@H](C(C)C)N(C)C(=O)[C@H](C(C)C)OC(=O)C1C (stereo partly drawn) [GUINEAMIDE B]	–	15 µM
C#CCCCC1NC(=O)[C@H](C)N(C)C(=O)[C@H](C(C)C)NC(=O)[C@H](Cc2ccc(OC)cc2)N(C)C(=O)C(C(C)CC)OC(=O)C1C (stereo partly drawn) [GUINEAMIDE C]	–	16 µM
